Measurements taken from the supplement of paper PMC11208160.

Assay: recombinant barcode read abundance after kanamycin selection (control-corrected) (log10(CPM+1)); higher = more efficient recombination; sequences stand for … in AGTGCAGAGAAAATCGGCCAGTTTTCTCTGCCTGCAGTCCGCATGCCGT…ATTTATGCAGCGGACTGCCTTTCTCCCAAAGTGATAAACCGGACAGTATCATGGACCGGTTTTCCCGGTAATCCGTATTTGCAAGGTTGGTTTCACT; site = the 11-nt target
Procedure, shortened: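 Reported as log10(CPM+1), each value stands for recombination efficiency. That efficiency is the averaged, control-corrected counts per million of barcodes found at recombinant junctions. Cells from a pooled E. coli library pairing targets with IS621 bridge RNA target-binding loops were plated twice on chloramphenicol/ampicillin LB agar (control) and twice on chloramphenicol/ampicillin/kanamycin with 0.1 mM IPTG.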

| Sequence | recombinant barcode read abundance (log10) |
| --- | --- |
| GGGAGCCCTTGGGTTCTAACCTGTTGCTGAA [GGGAGCCCTCA_LTGcore_CT_RTGcore_TT] (site GGGAGCCCTCA) (LTG core: CT, RTG core: TT) | 0.138 |
| GGGAGCCCTTGGGTTCTAACCTGTTGCTGAT [GGGAGCCCTCA_LTGcore_CT_RTGcore_AT] (site GGGAGCCCTCA) (LTG core: CT, RTG core: AT) | 0.599 |
| GGGAGCCCTTGGGTTCTAACCTGTTGCTGCC [GGGAGCCCTCA_LTGcore_CT_RTGcore_GG] (site GGGAGCCCTCA) (LTG core: CT, RTG core: GG) | 0.0726 |
| GGGAGCCCTTGGGTTCTAACCTGTTGCTGTT [GGGAGCCCTCA_LTGcore_CT_RTGcore_AA] (site GGGAGCCCTCA) (LTG core: CT, RTG core: AA) | 0.272 |
| GGGAGCCGCTGGGTTCTAACCTGTTGCTGAG [GGGAGCCCTCA_LTGcore_GC_RTGcore_CT] (site GGGAGCCCTCA) (LTG core: GC, RTG core: CT) | 0.379 |
| GGGAGCCGGTGGGTTCTAACCTGTTGCTGAG [GGGAGCCCTCA_LTGcore_GG_RTGcore_CT] (site GGGAGCCCTCA) (LTG core: GG, RTG core: CT) | 0.212 |
| GGGAGCCGGTGGGTTCTAACCTGTTGCTGCC [GGGAGCCCTCA_LTGcore_GG_RTGcore_GG] (site GGGAGCCCTCA) (LTG core: GG, RTG core: GG) | 0.0432 |
| GGGCGGAAATGGGTTCTAACCTGTTGCGGTT [GGGCGGACTCC_LTGcore_AA_RTGcore_AA] (site GGGCGGACTCC) (LTG core: AA, RTG core: AA) | 0.428 |
| GGGCGGAATTGGGTTCTAACCTGTTGCGGAT [GGGCGGACTCC_LTGcore_AT_RTGcore_AT] (site GGGCGGACTCC) (LTG core: AT, RTG core: AT) | 0.0199 |
| GGGCGGACATGGGTTCTAACCTGTTGCGGTG [GGGCGGACTCC_LTGcore_CA_RTGcore_CA] (site GGGCGGACTCC) (LTG core: CA, RTG core: CA) | 0.732 |
| GGGCGGACGTGGGTTCTAACCTGTTGCGGCG [GGGCGGACTCC_LTGcore_CG_RTGcore_CG] (site GGGCGGACTCC) (LTG core: CG, RTG core: CG) | 0.759 |
| GGGCGGACTTGGGTTCTAACCTGTTGCGGCT [GGGCGGACTCC_LTGcore_CT_RTGcore_AG] (site GGGCGGACTCC) (LTG core: CT, RTG core: AG) | 0.292 |
| GGGCGGACTTGGGTTCTAACCTGTTGCGGTG [GGGCGGACTCC_LTGcore_CT_RTGcore_CA] (site GGGCGGACTCC) (LTG core: CT, RTG core: CA) | 0.17 |
| GGGCGGAGCTGGGTTCTAACCTGTTGCGGGC [GGGCGGACTCC_LTGcore_GC_RTGcore_GC] (site GGGCGGACTCC) (LTG core: GC, RTG core: GC) | 0.417 |
| GGGCGGAGTTGGGTTCTAACCTGTTGCGGAC [GGGCGGACTCC_LTGcore_GT_RTGcore_GT] (site GGGCGGACTCC) (LTG core: GT, RTG core: GT) | 0.199 |
| GGGCGGATGTGGGTTCTAACCTGTTGCGGAG [GGGCGGACTCC_LTGcore_TG_RTGcore_CT] (site GGGCGGACTCC) (LTG core: TG, RTG core: CT) | 0.251 |
| GGGCGTGAATGGGTTCTAACCTGTTGCCTTT [GGGCGTGCTAG_LTGcore_AA_RTGcore_AA] (site GGGCGTGCTAG) (LTG core: AA, RTG core: AA) | 0.148 |

| Sequence | recombinant barcode read abundance (log10) |
| --- | --- |
| GGGCGTGCATGGGTTCTAACCTGTTGCCTTG [GGGCGTGCTAG_LTGcore_CA_RTGcore_CA] (site GGGCGTGCTAG) (LTG core: CA, RTG core: CA) | 0.0757 |
| GGGCGTGCTTGGGTTCTAACCTGTTGCCTCT [GGGCGTGCTAG_LTGcore_CT_RTGcore_AG] (site GGGCGTGCTAG) (LTG core: CT, RTG core: AG) | 0.831 |
| GGGCGTGGGTGGGTTCTAACCTGTTGCCTCC [GGGCGTGCTAG_LTGcore_GG_RTGcore_GG] (site GGGCGTGCTAG) (LTG core: GG, RTG core: GG) | 0.116 |
| GGGCGTGGTTGGGTTCTAACCTGTTGCCTAC [GGGCGTGCTAG_LTGcore_GT_RTGcore_GT] (site GGGCGTGCTAG) (LTG core: GT, RTG core: GT) | 0.593 |
| GGGCGTGTGTGGGTTCTAACCTGTTGCCTAG [GGGCGTGCTAG_LTGcore_TG_RTGcore_CT] (site GGGCGTGCTAG) (LTG core: TG, RTG core: CT) | 0.228 |
| GGTGCCCAGTGGGTTCTAACCTGTTGCCGAG [GGTGCCCCTCG_LTGcore_AG_RTGcore_CT] (site GGTGCCCCTCG) (LTG core: AG, RTG core: CT) | 0.202 |
| GGTGCCCCATGGGTTCTAACCTGTTGCCGAG [GGTGCCCCTCG_LTGcore_CA_RTGcore_CT] (site GGTGCCCCTCG) (LTG core: CA, RTG core: CT) | 0.158 |
| GGTGCCCCATGGGTTCTAACCTGTTGCCGTG [GGTGCCCCTCG_LTGcore_CA_RTGcore_CA] (site GGTGCCCCTCG) (LTG core: CA, RTG core: CA) | 0.0735 |
| GGTGCCCCTTGGGTTCTAACCTGTTGCCGTA [GGTGCCCCTCG_LTGcore_CT_RTGcore_TA] (site GGTGCCCCTCG) (LTG core: CT, RTG core: TA) | 0.258 |
| GGTGCCCGATGGGTTCTAACCTGTTGCCGAG [GGTGCCCCTCG_LTGcore_GA_RTGcore_CT] (site GGTGCCCCTCG) (LTG core: GA, RTG core: CT) | 0.0132 |
| GGTGCCCGCTGGGTTCTAACCTGTTGCCGAG [GGTGCCCCTCG_LTGcore_GC_RTGcore_CT] (site GGTGCCCCTCG) (LTG core: GC, RTG core: CT) | 0.0494 |
| GGTGCCCGGTGGGTTCTAACCTGTTGCCGAG [GGTGCCCCTCG_LTGcore_GG_RTGcore_CT] (site GGTGCCCCTCG) (LTG core: GG, RTG core: CT) | 0.0774 |
| GGTGCCCGTTGGGTTCTAACCTGTTGCCGAC [GGTGCCCCTCG_LTGcore_GT_RTGcore_GT] (site GGTGCCCCTCG) (LTG core: GT, RTG core: GT) | 0.151 |
| GGTGCCCTATGGGTTCTAACCTGTTGCCGAG [GGTGCCCCTCG_LTGcore_TA_RTGcore_CT] (site GGTGCCCCTCG) (LTG core: TA, RTG core: CT) | 0.122 |
| GGTGCCCTCTGGGTTCTAACCTGTTGCCGGA [GGTGCCCCTCG_LTGcore_TC_RTGcore_TC] (site GGTGCCCCTCG) (LTG core: TC, RTG core: TC) | 0.0162 |
| GGTGCCCTGTGGGTTCTAACCTGTTGCCGCA [GGTGCCCCTCG_LTGcore_TG_RTGcore_TG] (site GGTGCCCCTCG) (LTG core: TG, RTG core: TG) | 0.15 |
| GGTGCCCTTTGGGTTCTAACCTGTTGCCGAG [GGTGCCCCTCG_LTGcore_TT_RTGcore_CT] (site GGTGCCCCTCG) (LTG core: TT, RTG core: CT) | 0.0486 |
